Test results taken from paper PMC4604124, “In Vitro Characterization of the Pharmacological Properties of the Anti-Cancer Chelator, Bp4eT, and Its Phase I Metabolites” (PLoS ONE, 2015).
Where “and” joins values, the source holds several entries; their conditions need not be identical. Equal entries are not always repeated. Where two headings read alike, the source gives them in different places.

Legend:
[1] = tested on: MCF-7 human breast adenocarcinoma cells; test: MTT cytotoxicity assay, MCF-7 cells; type: cell-based; conditions: for IC50: MTT
Description: (§1) For cytotoxicity experiments, cancer cells were seeded at a density of 5,000 (MCF-7), 10,000 (HL-60) or 2,000 cells/well (HCT116 and A549) in 96-well plates (TPP) for 24 h/37°C prior to the addition of examined agents. The non-cancerous cells, 3T3 and H9c2 cells, were cultured for 24 h/37°C in 96-well plates at a density of 10,000 cells/well, the medium was then changed to serum- and pyruvate-free DMEM (Sigma-Aldrich) and incubated with the cells for another 24 h/37°C. The cytotoxic effects of Bp4eT and its metabolites were studied at different concentrations after a 72 h/37°C incubation. In order to aid the dissolution of the lipophilic ligands, 0.1% dimethyl sulfoxide (v/v) (DMSO; Sigma-Aldrich) was present in the culture medium of all groups. At this concentration, DMSO had no effect on cellular proliferation or viability.
(§2) The viability of cells were determined using an MTT assay (Sigma-Aldrich) according to previously established methods. The optical density of soluble MTT was measured at λ = 570 nm, subtracting the λ = 690 nm background using a Tecan Infinite 200M plate reader (Tecan Group, Männedorf, Switzerland). The viability or proliferation of experimental groups was expressed as a percentage of the untreated controls (100%).
(§3) SigmaStat for Windows 3.5 (Systat Software, San Jose, CA, USA) statistical software package was utilized to analyze results. The data are expressed as the mean ± SD of a given number of experiments. Statistical significance was determined using a one-way ANOVA with a Bonferroni post-hoc test or Student’s t-test. The results were considered to be statistically significant when p < 0.05. The IC50 values were calculated using CalcuSyn 2.0 software (Biosoft, Cambridge, UK). Cell cycle analysis was evaluated using MultiCycle AV Software (Phoenix Flow Systems, San Diego, CA, USA).

[2] = tested on: H9c2 cardiomyoblasts; test: MTT cytotoxicity assay, H9c2 cells; type: cell-based, rat; conditions: for IC50: MTT, read-out: IC50
Summary of the method: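 Cells were seeded 24 h at 37°C (MCF-7 5,000, HCT116 and A549 2,000, H9c2 10,000 cells/well; H9c2 then given serum- and pyruvate-free DMEM for 24 h) and exposed to compounds for 72 h in medium with 0.1% DMSO. MTT absorbance was read at 570 nm minus 690 nm; IC50 came from viability relative to untreated controls.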

[3] = tested on: cancer cells (HL-60, MCF-7, HCT116, A549) and non-cancerous cells (H9c2, 3T3); test: MTT cytotoxicity assay, summary over the cell line panel; type: cell-based
Description: as §1, §2, §3

[4] = tested on: MCF-7 cells; test: Epifluorescence microscopy, triple staining MDC / annexin V-FITC / propidium iodide; type: cell-based, human; conditions: Bp4eT 10 or 100 nM 72 h, rapamycin 1 nM 30 min
Description: (§4) Markers used to assess autophagy/apoptosis/necrosis in MCF-7 cells and changes of lysosomal and mitochondrial morphology were observed using an Eclipse Ti inverted epifluorescence microscope (Nikon, Tokyo, Japan), that was equipped with a cooled digital camera Zyla 5.5 sCMOS (Andor Technology, Belfast, UK), and NIS-Elements C 4.1 software (Laboratory Imaging, Prague, Czech Republic). The MCF-7 cells were seeded in 6-well plates with cover slips on the bottom at a density of 150,000 cells/well and incubated as described above in the presence or absence of 10 or 100 nM Bp4eT.
To assess the mechanism of cellular death after incubation with Bp4eT, triple staining with monodansyl cadaverine (MDC; 50 μM; λex = 390 nm; λem = 455 nm; Sigma-Aldrich), annexin V-FITC (5 μL/mL; λex = 495 nm; λem = 519 nm; Invitrogen, Carlsbad, CA, USA), and propidium iodide (5 μg/mL; λex = 560 nm; λem = 630 nm) was used. MDC is a marker of autophagosomes and lysosomes and results in blue fluorescence. As a positive control for autophagy, MCF-7 cells were incubated with 1 nM rapamycin (Sigma-Aldrich) for 30 min/37°C, which is an established inducer of autophagy. Annexin V has high affinity to phosphatidylserine, which is translocated to the surface of both early- and late-stage apoptotic cells. […]

[5] = tested on: MCF-7 cells; test: Mitochondrial morphology, MitoTracker Green FM; type: cell-based, human; conditions: 10 or 100 nM, 72 h
Description: as §4
To determine the effect of Bp4eT on mitochondrial morphology, the cells were incubated with MitoTracker® Green FM (0.25 μM; λex = 490 nm; λem = 516 nm; Molecular Probes) for 10 min/37°C. The cells were then washed with fresh medium and the images captured using the microscope described above.

CCNC(=S)NN=C(c1ccccc1)c1ccccn1 [Bp4eT, 2-benzoylpyridine 4-ethyl-3-thiosemicarbazone]
MCF-7 proliferation, % of the control ([1]; 0.1 μM, 72 h): 27% | Therapeutic index, IC50 non-cancerous cells / IC50 neoplastic cells ([1]; 3T3/MCF-7): 87.3 | Therapeutic index, IC50 non-cancerous cells / IC50 neoplastic cells ([1]; H9c2/MCF-7): 34.9 | IC50 ([1]; Homo sapiens, MCF7, 72 h, MCF-7, 72 h/37°C, mean ± SD, n ≥ 4, read-out: IC50): 0.015 ± 0.002 µM | IC50 ([1]; Homo sapiens, MCF7, MCF-7, 5 000 b/j, průměr (mean), read-out: IC50 měřené): 0.0146 µM | IC50 ([1]; Homo sapiens, MCF7, MCF-7, 5 000 b/j, single experiment (date), read-out: IC50 měřené): 0.0146 µM | MTT, relative to control (0 = 100) ([1]; MCF-7, 5 000 b/j, 0.1 nM, průměr (mean)): 96.38 | MTT, relative to control (0 = 100) ([1]; MCF-7, 5 000 b/j, 0.1 nM, single experiment (date)): 88.7924 and 103.938 and 95.2002 and 101.937 and 92.0538 | MTT, relative to control (0 = 100) ([1]; MCF-7, 5 000 b/j, 0.3 nM, průměr (mean)): 88.87 | MTT, relative to control (0 = 100) ([1]; MCF-7, 5 000 b/j, 0.3 nM, single experiment (date)): 99.7305 and 86.2923 and 86.9644 and 82.4877 | MTT, relative to control (0 = 100) ([1]; MCF-7, 5 000 b/j, 1 nM, průměr (mean)): 87.17 | MTT, relative to control (0 = 100) ([1]; MCF-7, 5 000 b/j, 1 nM, single experiment (date)): 87.1761 and 96.2311 and 86.4816 and 83.9319 and 82.0349 | MTT, relative to control (0 = 100) ([1]; MCF-7, 5 000 b/j, 3 nM, průměr (mean)): 84.98 | MTT, relative to control (0 = 100) ([1]; MCF-7, 5 000 b/j, 3 nM, single experiment (date)): 92.03 and 87.788 and 84.0816 and 76.0316 | MTT, relative to control (0 = 100) ([1]; MCF-7, 5 000 b/j, 10 nM, průměr (mean)): 59.89 | MTT, relative to control (0 = 100) ([1]; MCF-7, 5 000 b/j, 10 nM, single experiment (date)): 58.817 and 55.8764 and 63.7331 and 67.2949 and 53.713 | MTT, relative to control (0 = 100) ([1]; MCF-7, 5 000 b/j, 30 nM, průměr (mean)): 30.78 | MTT, relative to control (0 = 100) ([1]; MCF-7, 5 000 b/j, 30 nM, single experiment (date)): 29.4154 and 32.9782 and 31.8134 and 28.9002 | MTT, relative to control (0 = 100) ([1]; MCF-7, 5 000 b/j, 100 nM, průměr (mean)): 27.09 | MTT, relative to control (0 = 100) ([1]; MCF-7, 5 000 b/j, 100 nM, single experiment (date)): 33.1607 and 22.627 and 26.6274 and 27.398 and 25.6334 | IC50 ([1]; MCF-7, 5 000 b/j, single experiment (date), read-out: IC50 měřené): 0.0163 µM and 0.0162 µM and 0.0112 µM | MTT, relative to control (0 = 100) ([2]; H9c2, 10 000 b/j, 3 nM, průměr (mean)): 99.21 | MTT, relative to control (0 = 100) ([2]; H9c2, 10 000 b/j, 3 nM, single experiment (date)): 102.894 and 97.5415 and 98.1925 and 99.1728 and 98.234 | MTT, relative to control (0 = 100) ([2]; H9c2, 10 000 b/j, 10 nM, průměr (mean)): 97.95 | MTT, relative to control (0 = 100) ([2]; H9c2, 10 000 b/j, 10 nM, single experiment (date)): 93.4128 and 99.1411 and 98.6466 and 98.7917 and 99.7545 | MTT, relative to control (0 = 100) ([2]; H9c2, 10 000 b/j, 30 nM, průměr (mean)): 93.46 | MTT, relative to control (0 = 100) ([2]; H9c2, 10 000 b/j, 30 nM, single experiment (date)): 89.8997 and 94.1191 and 90.5168 and 97.6473 and 95.1275 | MTT, relative to control (0 = 100) ([2]; H9c2, 10 000 b/j, 100 nM, průměr (mean)): 83.34 | MTT, relative to control (0 = 100) ([2]; H9c2, 10 000 b/j, 100 nM, single experiment (date)): 88.1519 and 73.0922 and 83.4003 and 88.2 and 83.8639 | MTT, relative to control (0 = 100) ([2]; H9c2, 10 000 b/j, 300 nM, průměr (mean)): 64.46 | MTT, relative to control (0 = 100) ([2]; H9c2, 10 000 b/j, 300 nM, single experiment (date)): 78.5818 and 47.7898 and 54.7281 and 65.2971 and 75.8815 | MTT, relative to control (0 = 100) ([2]; H9c2, 10 000 b/j, 1000 nM, průměr (mean)): 35.85 | MTT, relative to control (0 = 100) ([2]; H9c2, 10 000 b/j, 1000 nM, single experiment (date)): 36.8685 and 33.593 and 34.7888 and 38.1329 | MTT, relative to control (0 = 100) ([2]; H9c2, 10 000 b/j, 3000 nM, průměr (mean)): 31.03 | MTT, relative to control (0 = 100) ([2]; H9c2, 10 000 b/j, 3000 nM, single experiment (date)): 33.7493 and 30.5962 and 27.1956 and 32.5967 | IC50 ([2]; H9c2, 10 000 b/j, single experiment (date)): 0.36 µM and 0.438 µM and 0.587 µM | IC50 ([2]; Rattus norvegicus, H9c2, 72 h, H9c2, 72 h/37°C, mean ± SD, n ≥ 4): 0.524 ± 0.157 µM | IC50 ([2]; Rattus norvegicus, H9c2, H9c2, 10 000 b/j, průměr (mean)): 0.524 µM | IC50 ([2]; Rattus norvegicus, H9c2, H9c2, 10 000 b/j, single experiment (date)): 0.713 µM | IC50 ([3]; HL-60, MCF-7 and HCT116 cells, 72 h, read-out: IC50, range over cell lines): 0.003 to 0.015 µM | Therapeutic indices, range ([3]; towards HL-60, MCF-7 and HCT116 cancer cells): 34.9–436.3 | Staining for autophagy/apoptosis/necrosis (MDC, annexin V-FITC, propidium iodide) [4]: dose-dependent increase in the number of green annexin V-stained cell membranes or bodies | Mitochondrial morphology [5]: more swollen and enlarged
